Assay results from patent US11420943B2, “Peptide derivatives and therapeutic activity thereof” (FLAMMA S.P.A., priority 2017, dated 2022).
Where two headings read alike, the source gives them in different places. Where a SMILES comes first, the peptide text is derived from it. [ ]: non-standard residue; d: D form. Aib = CC(C)(N)C(=O)O

Tests used:
[1] = reported in WO2011/080139, same test; cited from earlier work
[2] = Carbonyl-quenching activity towards HNE in vitro (residual HNE by reverse-phase chromatography); type: biochemical; details: for ACTIVITY (CARNOSINE UNIT) 1 h / HNE CONSUMPTION (%) 1 h: 1 h incubation; for ACTIVITY (CARNOSINE UNIT) 1 h / HNE CONSUMPTION (%) 1 h / ACTIVITY (CARNOSINE UNIT) 3 h / HNE CONSUMPTION (%) 3 h: HNE 50 μM, compound 1 mM, phosphate buffer 10 mM, pH 7.4, 37° C.; for ACTIVITY (CARNOSINE UNIT) 3 h / HNE CONSUMPTION (%) 3 h: 3 h incubation
Procedure: (§1) The pharmacological activity of the compounds according to the invention was determined in vitro by evaluating their carbonyl-quenching activity towards 4-hydroxy nonenal (HNE), which is known for its involvement in numerous disorders. Said activity was compared with that of L-carnosine, a compound known as a carbonyl quencher in vitro but having limited metabolic stability caused by serum carnosinase. The metabolic stability of a particularly interesting compound was also evaluated in human serum after 1 and 2 hours.
The activity was evaluated one and three hours after incubation, determining the residual HNE content by reverse-phase chromatography as previously described by Aldini G. et al. [Biochem Biophys Res Commun. 2002 Nov. 15; 298 (5):699-706]. The carbonyl-quenching activity is evaluated on the basis of the percentage of HNE reacted, compared with the HNE content in the absence of the molecule to be tested.

[3] = Stability in human serum (HPLC-MS recovery); type: in vitro ADME; details: 37° C.
Procedure: as §1
The samples taken from each matrix, suitably treated, were analysed by HPLC-MS, obtaining recovery after 1 h and 2 h.

Row | Stability in plasma (% residual amount) 1 h ([3]; 1 h) [%] | Stability in plasma (% residual amount) 2 h ([3]; 2 h) [%] | Structure (SMILES) | carbonyl-quenching activity, times greater than that of L-carnosine [1] [times] | ACTIVITY (CARNOSINE UNIT) 1 h [2] [CARNOSINE UNIT] | HNE CONSUMPTION (%) 1 h [2] [%] | ACTIVITY (CARNOSINE UNIT) 3 h [2] [CARNOSINE UNIT] | HNE CONSUMPTION (%) 3 h [2] [%] | carbonyl-quenching activity, times greater than that of L-carnosine ([2]; see Table I) [times]
1 | – | – | NCCC(=O)N[C@H](CO)Cc1cnc[nH]1 [3-amino-N-[(1S)-2-hydroxy-1-(1H-imidazol-5-yl-methyl)ethyl]propanamide] | 1.6 | – | – | – | – | –
2 | – | – | NCCC(=O)N[C@@H](Cc1cnc[nH]1)C(=O)O [CARNOSINE, L-carnosine, reference compound] | – | 1.00 | 17.05 ± 1.24 | 1.00 | 42.66 ± 0.89 | –
3 | – | – | CC(C)(N)CC(=O)N[C@@H](Cc1c[nH]cn1)C(=O)O [FLM-02-ACI, N-(3-amino-3,3-dimethylpropanoyl)-L-histidine] | – | 0.02 | 0.40 ± 1.73 | 0.14 | 6.05 ± 1.66 | –
4 | – | – | CC(C)(N)CC(=O)N[C@H](CO)Cc1c[nH]cn1 [FLM-02-OLO, (S)-3-amino-N-(1-hydroxy-3-(1H-imidazol-4-yl)propan-2-yl)-3,3-dimethylpropanamide] | – | 0.25 | 4.09 ± 2.61 | 0.24 | 10.50 ± 2.24 | –
5 | – | – | CC(C)(CN)C(=O)N[C@@H](Cc1c[nH]cn1)C(=O)O [FLM-04-ACI, N-(3-amino-2,2-dimethylpropanoyl)-L-histidine] | – | 1.76 | 30.06 ± 4.68 | 1.51 | 64.44 ± 4.37 | –
6 | 101.78 ± 16.20 | 100.34 ± 9.46 | CC(C)(CN)C(=O)N[C@H](CO)Cc1c[nH]cn1 [FLM-04-OLO, (S)-3-amino-N-(1-hydroxy-3-(1H-imidazol-4-yl)propan-2-yl)-2,2-dimethylpropanamide] | – | 3.13 | 52.14 ± 5.56 | 2.00 | 86.47 ± 2.73 | 3.1
7 | – | – | CC(C)(N)C(=O)N[C@@H](Cc1c[nH]cn1)C(=O)O [FLM-05-ACI, N-(2-amino-2-methylpropanoyl)-L-histidine] (H-[Aib]-His-OH) | – | 0.33 | 5.58 ± 7.50 | 0.37 | 15.84 ± 10.65 | –
8 | – | – | CC(C)(N)C(=O)N[C@H](CO)Cc1c[nH]cn1 [FLM-05-OLO, (S)-2-amino-N-(1-hydroxy-3-(1H-imidazol-4-yl)propan-2-yl)-2-methylpropanamide] | – | 0.38 | 6.40 ± 1.72 | 0.45 | 19.44 ± 2.36 | –
9 | – | – | NCC(F)(F)C(=O)N[C@@H](Cc1c[nH]cn1)C(=O)O [FLM-07-ACI, N-(3-amino-2,2-difluoropropanoyl)-L-histidine] | – | 0.46 | 7.88 ± 5.41 | 0.69 | 29.42 ± 6.42 | –
10 | – | – | NCC(F)(F)C(=O)N[C@H](CO)Cc1c[nH]cn1 [FLM-07-OLO, (S)-3-amino-2,2-difluoro-N-(1-hydroxy-3-(1H-imidazol-4-yl)propan-2-yl)propanamide] | – | 1 | 17.07 ± 1.76 | 0.82 | 34.93 ± 0.58 | –
11 | – | – | NCC1(C(=O)N[C@@H](Cc2c[nH]cn2)C(=O)O)CC1 [FLM-09-ACI] | – | 0.81 | 13.70 ± 0.83 | 0.89 | 36.11 ± 2.87 | –
12 | – | – | NCC1(C(=O)N[C@H](CO)Cc2c[nH]cn2)CC1 [FLM-09-OLO, (S)-1-(aminomethyl)-N-(1-hydroxy-3-(1H-imidazol-4-yl)propan-2-yl)cyclopropanecarboxamide] | – | 1.55 | 26.21 ± 1.04 | 1.45 | 59.09 ± 1.49 | –
13 | – | – | NCC1(C(=O)N[C@@H](Cc2c[nH]cn2)C(=O)O)CCC1 [FLM-10-ACI] | – | 1.06 | 17.89 ± 1.97 | 1.11 | 45.04 ± 2.94 | –
14 | – | – | NCC1(C(=O)N[C@H](CO)Cc2c[nH]cn2)CCC1 [FLM-10-OLO, (S)-1-(aminomethyl)-N-(1-hydroxy-3-(1H-imidazol-4-yl)propan-2-yl)cyclobutanecarboxamide] | – | 2.82 | 47.68 ± 3.02 | 2.08 | 84.63 ± 2.70 | –
15 | – | – | NCC1(C(=O)N[C@@H](Cc2c[nH]cn2)C(=O)O)CCCC1 [FLM-11-ACI] | – | 1.41 | 23.82 ± 1.55 | 1.31 | 53.54 ± 1.10 | –
16 | – | – | NCC1(C(=O)N[C@H](CO)Cc2c[nH]cn2)CCCC1 [FLM-11-OLO, (S)-1-(aminomethyl)-N-(1-hydroxy-3-(1H-imidazol-4-yl)propan-2-yl)cyclopentanecarboxamide] | – | 2.82 | 47.56 ± 0.69 | 2.06 | 83.90 ± 0.33 | –
17 | – | – | CC(C)(CN)C(=O)N[C@@H](Cc1c[nH]cn1)C(=O)O [FLM-12-ACI, N-(3-amino-2,2-dimethylpropanoyl)-L-histidine] | – | 1.58 | 27.07 ± 9.77 | 1.20 | 51.35 ± 9.22 | –
18 | – | – | Cn1cncc1C[C@@H](CO)NC(=O)C(C)(C)CN [FLM-12-OLO, (S)-3-amino-N-(1-hydroxy-3-(1-methyl-1H-imidazol-5-yl)propan-2-yl)-2,2-dimethylpropanamide] | – | 2.98 | 50.77 ± 3.84 | 1.64 | 70.08 ± 2.98 | –
19 | – | – | CC(C)(CCN)C(=O)N[C@@H](Cc1c[nH]cn1)C(=O)O [FLM-13-ACI, N-(4-amino-2,2-dimethylbutanoyl)-L-histidine] | – | 0.69 | 11.77 ± 6.79 | 0.48 | 20.43 ± 7.94 | –
20 | – | – | CC(C)(CCN)C(=O)N[C@H](CO)Cc1c[nH]cn1 [FLM-13-OLO, (S)-4-amino-N-(1-hydroxy-3-(1H-imidazol-4-yl)propan-2-yl)-2,2-dimethylbutanamide] | – | 0.62 | 10.54 ± 10.04 | 0.54 | 23.05 ± 12.28 | –
21 | – | – | NCC1(C(=O)N[C@@H](Cc2c[nH]cn2)C(=O)O)CCCCC1 [FLM-14-ACI] | – | 1.71 | 29.10 ± 2.97 | 1.36 | 58.03 ± 2.37 | –
22 | – | – | NCC1(C(=O)N[C@H](CO)Cc2c[nH]cn2)CCCCC1 [FLM-14-OLO, (S)-1-(aminomethyl)-N-(1-hydroxy-3-(1H-imidazol-4-yl)propan-2-yl)cyclohexanecarboxamide] | – | 2.84 | 48.36 ± 6.22 | 1.96 | 83.50 ± 5.85 | –
